Source: patent publication US10463618B2, “Nanoemulsions” (The University of Liverpool, priority 2015, dated 2019)

Legend:
final common pathway = experiment: Plasma coagulation: thrombin time (TT); set-up: species or system Human; settings: 37° C., 30 minutes, 0.16-40 μg/mL
Description: (§1) The impact of nanoemulsion formulations on plasma coagulation was also assessed. Human blood from three donors was collected by venepuncture into tubes anti-coagulated with sodium citrate; blood was used within one hour of collection. Test plasma was prepared by centrifuging blood at 2500×g, at 21° C., for 10 minutes with the resultant plasma collected and pooled. Pooled plasma was stable at room temperature for 8 hours. Nanoemulsion samples were prepared at 10× the required final concentration to accommodate dilution when added to test plasma. Concentrations and subsequent dilutions were based on the concentration of Efavirenz contained within the samples with dilutions of blank nanoemulsion diluted in the same fashion. Final concentrations tested were 40 μg/mL, 4 μg/mL, 0.8 μg/mL and 0.16 μg/mL. […]
(§2) Cuvettes were placed into A, B, C and D test rows on the coagulometer and one metal ball added into each cuvette (warmed for at least 3 minutes prior to use). […] Once incubation time was complete coagulation reagent was added to each cuvette and coagulation time recorded. Percentage coefficient of variation was calculated for each control and test samples according to the following formula: % CV=SD/Mean×100%. […] Data was expressed as a percentage of the coagulation time recorded for plasma with no nanomaterial present (plasma only control).

intrinsic pathway = experiment: Plasma coagulation: activated partial thromboplastin time (APTT); set-up: species or system Human
Description: as §1, §2

[1] = Solubility of drug in castor oil; format: physicochemical
Description: Non-limiting examples of some suitable drugs include for example the antiretroviral drugs Lopinavir (LPV) and Efavirenz (EFV), and the antibiotics Rifampicin and Erythromycin. Practically, approximately 50 mg/ml Efavirenz or 25 mg/ml Lopinavir can be dissolved in castor oil. Stock solutions of drug dissolved in castor oil were produced (50 mg/ml of Efavirenz in castor oil, or 25 mg/ml of Lopinavir in the same oil).

extrinsic pathway = experiment: Plasma coagulation: prothrombin time (PT); set-up: species or system Human; settings: 37° C., 30 minutes, 0.16-40 μg/mL
Description: as §1, §2

Caco-2 cells = experiment: Transcellular permeation assay (Caco-2 transwell); format: in vitro ADME; settings: 10 μM
Description: (§3) Caco-2 cells were seeded at a density of 35,000 cells per well in the apical chamber of a 24 well Corning® HTS® transwell plate, and left to adhere for 24 hours. After this time, culture media was replenished by removal with an aspirator, also removing those cells that had not adhered. Culture media used was DMEM supplemented with 15% fetal bovine serum, which was continually replenished every other day for a three-week period.
(§4) In different wells the apical or basolateral chambers (donor chambers) were loaded with drug or nanoemulsion containing media, with the opposite chambers (acceptor chambers) of those wells being filled with fresh drug-free media. Samples were taken from both apical and basolateral chambers from all wells at 1, 2, and 24 hour time periods. Samples were then immediately frozen at −40° C. for subsequent batch analysis via high performance liquid chromatography to determine the concentration of the drug in the sample.
(§5) The apparent permeability (Papp) was calculated using the following equation: Papp=((A/T)*(V))/(S*0.3).
(§6) Where A is the concentration in the sample, T is the time in seconds at which the sample was collected, V is the total volume of sample contained in the chamber being sampled, S is the initial starting concentration of the drug and 0.3 is the surface area in cm^2 of the transwell insert on which the Caco-2 cells are grown.

[2] = Transcellular permeation assay (Caco-2 transwell); format: in vitro ADME; settings: human
Description: as §3, §4, §5, §6

[3] = Caco-2, 2 hours, read-out: Papp apical to basolateral

amount that can be dissolved in castor oil [1] | Papp basolateral to apical (Caco-2 cells; 1 hour) | Papp basolateral to apical (Caco-2 cells; 2 hours) | Papp A→B at 2 h, 10 μM [2, 3] [×10⁻⁶ cm/s] | Papp A→B at 24 h, 10 μM ([2]; Caco-2, 24 hours, read-out: Papp apical to basolateral) [×10⁻⁶ cm/s] | Papp A→B at 1 h, 10 μM ([2]; Caco-2, 1 hour, read-out: Papp apical to basolateral) [×10⁻⁶ cm/s] | Papp B→A at 1 h, 10 μM ([2]; Caco-2, 1 hour, read-out: Papp basolateral to apical) [×10⁻⁶ cm/s] | Papp B→A at 2 h, 10 μM ([2]; Caco-2, 2 hours, read-out: Papp basolateral to apical) [×10⁻⁶ cm/s] | Structure (SMILES) | impact on thrombin time (TT) (final common pathway) | impact on APTT coagulation time (intrinsic pathway) | impact on prothrombin time (PT) (extrinsic pathway)
approximately 50 mg/ml | increased compared to EFV nanoemulsion | increased compared to EFV nanoemulsion | 8.2 | 0.7 |  |  |  | O=C1Nc2ccc(Cl)cc2[C@@](C#CC2CC2)(C(F)(F)F)O1 [Efavirenz] | No impact | did not impact on coagulation time at all | No impact
~25 mg/mL |  |  | 2.7 |  | 8.4 | 9.3 | 13 | Cc1cccc(C)c1OCC(=O)N[C@@H](Cc1ccccc1)[C@@H](O)C[C@H](Cc1ccccc1)NC(=O)[C@H](C(C)C)N1CCCNC1=O [Lopinavir] |  |  | 
